Results as given in ChEMBL document CHEMBL1201862, “PubChem BioAssay data set” (2004).
Where a name gives a salt, the structure may show the parent alone.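 Five compound concentrations were applied to cells in 96-well plates for 48 hours; endpoints were derived by simple linear interpolation of the resulting dose-response curve. GI50 = concentration required for 50% inhibition of growth.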 The source made the active and inactive calls. Cut-off read from the data, not from the text of the source: active = GI50 up to about 1.1 µM and inactive = higher.

Key:
Experiment in all cases: NCI-60 cell line screen, 48 h
[1] = test system: KM-20L2
[2] = test system: EKVX
[3] = test system: SK-MEL-28
[4] = test system: DMS-114
[5] = test system: A498
[6] = test system: SK-OV-3
[7] = test system: SN12C
[8] = test system: RXF 631
[9] = test system: OVCAR-8
[10] = test system: HCT-116
[11] = test system: LOX IMVI
[12] = test system: U-251
[13] = test system: COLO 205
[14] = test system: 786-0
[15] = test system: NCI-H23
[16] = test system: SW-620
[17] = test system: HOP-92
[18] = test system: RXF 393
[19] = test system: HL-60
[20] = test system: M14
[21] = test system: A549
[22] = test system: HOP-18
[23] = test system: DLD-1
[24] = test system: M19-MEL
[25] = test system: SF-539
[26] = test system: UACC-62
[27] = test system: HT-29
[28] = test system: IGROV-1
[29] = test system: TK-10
[30] = test system: RPMI-8226
[31] = test system: NCI-H460
[32] = test system: CAKI-1
[33] = test system: SK-MEL-5
[34] = test system: SF-268
[35] = test system: DMS-273
[36] = test system: ACHN
[37] = test system: SNB-19
[38] = test system: SF-295
[39] = test system: UO-31
[40] = test system: LXFL 529
[41] = test system: NCI-H522
[42] = test system: K562
[43] = test system: HCT-15
[44] = test system: MOLT-4
[45] = test system: XF498
[46] = test system: CCRF-CEM
[47] = test system: Hs-578T
[48] = test system: OVCAR-3
[49] = test system: DU-145
[50] = test system: PC-3
[51] = test system: OVCAR-5
[52] = test system: SK-MEL-2
[53] = test system: UACC-257
[54] = test system: MDA-MB-231
[55] = test system: NCI/ADR-RES
[56] = test system: Malme-3M
[57] = test system: HCC 2998
[58] = test system: NCI-H226
[59] = test system: SR
[60] = test system: SNB-75
[61] = test system: MCF7
[62] = test system: OVCAR-4
[63] = test system: MDA-N
[64] = test system: MDA-MB-435
[65] = test system: SNB-78
[66] = test system: KM12
[67] = test system: T47D
[68] = test system: BT-549
[69] = test system: HOP-62

**Q.** `Cn1nc(-c2ccccc2)c(C(=O)/C=C/c2ccc(F)cc2)c(N2CCOCC2)c1=O` was tested. Which GI50 [1] did it give?
**A.** 15100 nM (inactive)

**Q.** And the GI50 [2]?
**A.** 25700 nM (inactive)

**Q.** What about the GI50 [3] of the same molecule?
**A.** 15800 nM (inactive)

**Q.** And the GI50 [4]?
**A.** 15900 nM (inactive)

**Q.** And the GI50 [5]?
**A.** 17700 nM (inactive)

**Q.** And the GI50 [6]?
**A.** 32700 nM (inactive)

**Q.** And the GI50 [7]?
**A.** 28300 nM (inactive)

**Q.** What about the GI50 [8] of the same molecule?
**A.** 27700 nM (inactive)

**Q.** What about the GI50 [9] of the same molecule?
**A.** 22500 nM (inactive)

**Q.** And the GI50 [10]?
**A.** 4210 nM (inactive)

**Q.** And the GI50 [11]?
**A.** 21100 nM (inactive)

**Q.** What about the GI50 [12] of the same molecule?
**A.** 16700 nM (inactive)

**Q.** And the GI50 [13]?
**A.** 18200 nM (inactive)

**Q.** What about the GI50 [14] of the same molecule?
**A.** 16000 nM (inactive)

**Q.** And the GI50 [15]?
**A.** > 10000 nM (inactive)

**Q.** What about the GI50 [16] of the same molecule?
**A.** 21300 nM (inactive)

**Q.** What about the GI50 [17] of the same molecule?
**A.** 15200 nM (inactive)

**Q.** And the GI50 [18]?
**A.** 13600 nM (inactive)

**Q.** What about the GI50 [19] of the same molecule?
**A.** 14600 nM (inactive)

**Q.** And the GI50 [20]?
**A.** 21800 nM (inactive)

**Q.** And the GI50 [21]?
**A.** 17400 nM (inactive)

**Q.** And the GI50 [22]?
**A.** 17300 nM (inactive)

**Q.** And the GI50 [23]?
**A.** 23100 nM (inactive)

**Q.** And the GI50 [24]?
**A.** 18500 nM (inactive)

**Q.** And the GI50 [25]?
**A.** 17300 nM (inactive)

**Q.** And the GI50 [26]?
**A.** 18100 nM (inactive)

**Q.** What about the GI50 [27] of the same molecule?
**A.** 15900 nM (inactive)

**Q.** What about the GI50 [28] of the same molecule?
**A.** 20300 nM (inactive)

**Q.** And the GI50 [29]?
**A.** 28600 nM (inactive)

**Q.** And the GI50 [30]?
**A.** 4570 nM (inactive)

**Q.** What about the GI50 [31] of the same molecule?
**A.** 24400 nM (inactive)

**Q.** And the GI50 [32]?
**A.** > 10000 nM (inactive)

**Q.** What about the GI50 [33] of the same molecule?
**A.** 14800 nM (inactive)

**Q.** What about the GI50 [34] of the same molecule?
**A.** 19100 nM (inactive)

**Q.** What about the GI50 [35] of the same molecule?
**A.** 19100 nM (inactive)

**Q.** And the GI50 [36]?
**A.** 22500 nM (inactive)

**Q.** What about the GI50 [37] of the same molecule?
**A.** 13700 nM (inactive)

**Q.** What about the GI50 [38] of the same molecule?
**A.** 18200 nM (inactive)

**Q.** What about the GI50 [39] of the same molecule?
**A.** 12900 nM (inactive)

**Q.** And the GI50 [40]?
**A.** 16000 nM (inactive)

**Q.** And the GI50 [41]?
**A.** 14500 nM (inactive)

**Q.** And the GI50 [42]?
**A.** 16800 nM (inactive)

**Q.** And the GI50 [43]?
**A.** 23600 nM

**Q.** And the GI50 [44]?
**A.** 14200 nM (inactive)

**Q.** And the GI50 [45]?
**A.** 19800 nM (inactive)

**Q.** What about the GI50 [46] of the same molecule?
**A.** 17700 nM (inactive)

**Q.** Which results are given for `O=C1c2c(O)cccc2-c2nn(CCNCCO)c3ccc(NCCNCCO)c1c23` [LOSOXANTRONE HYDROCHLORIDE]?
**A.** GI50 [1]: 1660 nM (inactive); GI50 [2]: 867 nM (active); GI50 [3]: 447 nM (active); GI50 [4]: < 10.4 nM (active); GI50 [5]: < 11.3 nM (active); GI50 [6]: 73.5 nM (active); GI50 [7]: 18.2 nM (active); GI50 [8]: 318 nM (active); GI50 [9]: 159 nM (active); GI50 [10]: 43 nM (active); GI50 [11]: 66.7 nM (active); GI50 [12]: 12.2 nM (active); GI50 [13]: 158 nM (active); GI50 [14]: < 18.5 nM (active); GI50 [15]: 33.8 nM (active); GI50 [47]: 79.1 nM (active); GI50 [16]: 116 nM (active); GI50 [17]: 28.5 nM (active); GI50 [48]: 598 nM (active); GI50 [18]: 188 nM (active); GI50 [49]: < 10 nM (active); GI50 [50]: 160 nM (active); GI50 [19]: < 10 nM (active); GI50 [51]: 290 nM (active); GI50 [20]: 244 nM (active); GI50 [52]: 436 nM (active); GI50 [21]: < 10 nM (active); GI50 [22]: 248 nM (active); GI50 [23]: 1240 nM (inactive); GI50 [53]: 1600 nM (inactive); GI50 [24]: 160 nM (active); GI50 [25]: 28.8 nM (active); GI50 [26]: < 45.1 nM (active); GI50 [27]: 303 nM (active); GI50 [28]: 337 nM (active); GI50 [29]: 685 nM (active); GI50 [54]: 185 nM (active); GI50 [55]: 8280 nM (inactive); GI50 [56]: 123 nM (active); GI50 [57]: 137 nM (active); GI50 [30]: 432 nM (active); GI50 [58]: < 17.1 nM (active); GI50 [59]: < 10 nM (active); GI50 [31]: < 10 nM (active); GI50 [32]: 55.2 nM (active); GI50 [60]: 47 nM (active); GI50 [61]: < 10 nM (active); GI50 [62]: 605 nM (active); GI50 [63]: 480 nM (active); GI50 [33]: 95.5 nM (active); GI50 [34]: 31.6 nM (active); GI50 [35]: 28.8 nM (active); GI50 [64]: 530 nM (active); GI50 [36]: 33.7 nM (active); GI50 [37]: < 16.7 nM (active); GI50 [38]: 23.6 nM (active); GI50 [39]: 1520 nM (inactive); GI50 [40]: 107 nM (active); GI50 [41]: 22.8 nM (active); GI50 [42]: 238 nM (active); GI50 [65]: 634 nM (active); GI50 [66]: 590 nM (active); GI50 [43]: 2360 nM; GI50 [44]: < 10 nM (active); GI50 [67]: 105 nM (active); GI50 [68]: 182 nM (active); GI50 [45]: 13.5 nM (active); GI50 [46]: < 10 nM (active); GI50 [69]: < 16.9 nM (active)
